Here are results for four compounds from patent US10953015B2, “Use of adenosine receptor signaling to regulate P-gp function” (CORNELL UNIVERSITY, priority 2016, dated 2021).

Molecules are shown by their SMILES. Entries after “also recorded” stand apart in the source; their conditions may differ.

The conditions of data set [1]: cited from earlier work.
Data set [2] deals with P-gp. The data set can be described thus: Epirubicin accumulation and P-gp staining in MCF7 cells (fluorescence microscopy). Format: cell-based, human. To be noted: 1 μM. Here is the method: MCF7 cells (human breast cancer cell line) were cultured in 24 well plates until they reached confluency. FIGS. 17A-17C are images of western blots of cells treated with vehicle control (i.e., DMSO) (“D”) or 1 μM of the broad spectrum AR agonist NECA (“N”) (FIG. 17A), 1 μM of the A2A AR agonist Lexiscan® (“L”) (FIG. 17B), or 1 μM of the A2B AR agonist BAY60 (“B”) (FIG. 17C), respectively for 24, 48, 72 hours. Cells were lysed with lysis buffer and expression levels of P-gp, MMP9, or VEGF analyzed by western blot. GAPDH was used as loading a control. FIG. 17D is a graph of experimental results showing that Lexiscan® down-regulates P-gp expression in MCF7 breast cancer cells. MCF7 breast cancer cells were treated with Lex (0.25 μM) concomitant with Rhodamine 123 (“Rho123”). […] Students T test, P<0.001. […] FIG. 17E is a fluorescence microscopy image showing MCF7 breast cancer cells grown on coverslips and treated with vehicle (DMSO, control), or A2 AR agonists, Lexiscan® (1 μM) or A1193 (1 μM) for 15 minutes in the presence of epirubicin. Cells were stained with an antibody to P-gp and mounted with DAPI. FIG. 17F is a graph of the fluorescent intensity quantified from FIG. 17E by measuring the mean fluorescent intensity (“MFI”) of epirubicin (pink) that is present in cell nuclei. ***=P<0.0001.
To further assess the modulation of A2A AR agonists on P-gp expression in MCF7 cells, applicants evaluated the accumulation of the P-gp substrate epirubicin in MCF7 cells. MCF7 cells were treated with DMSO (control), 1 μM Lexiscan®, or 1 μM of the A2A AR agonist A1193. […] In this case, the down-regulation of P-gp expression is equivalent to down-regulation of its function (Kim et al., “A2A Adenosine Receptor Modulates Drug Efflux Transporter P-Glycoprotein at the Blood-Brain Barrier,” J Clin Invest. 126(5):1717-33 (2016), which is hereby incorporated by reference in its entirety).

The subject of data set [3] is P-gp. Description: P-gp expression in Caco-2 human tumor cell line (IFA MFI, western blot). To be noted: 1 μM for 30 minutes (IFA), 1, 0.5, 0.1 μM (western blot). The data set is classed as cell-based. Here is the method: FIG. 19A are fluorescence microscopy images of Caco-2 cells (originally isolated from a human primary colonic tumor) grown on coverslips and treated with Lexiscan® (1 μM) or A1193 (1 μM), or DMSO (vehicle) control for 30 minutes. Next, cells were fixed, permeabilized, and stained with an antibody to P-gp. After washing, cells were mounted with DAPI for nuclear staining. FIG. 19B is a graph of the MFI of P-gp. FIG. 19C is a graph of densitometric analysis of a western blot of Caco-2 cells treated with Lexiscan® in varying concentrations (1, 0.5, and 0.1 μM). Densitometric analysis was performed to quantify the amount of P-gp in western blot. Statistics: two tailed student's t test for FIG. 19B, *<0.5.
Applicants also evaluated whether A2A AR agonists can modulate P-gp expression in a human tumor cell line, Caco-2 cells. Briefly, Caco-2 cells (originally isolated from a human tumor) were grown on coverslips and treated with Lexiscan®, A1193, or vehicle control for 30 minutes. Cells were then fixed, permeabilized, and stained with an antibody to P-gp. After washing, cells were mounted with DAPI for nuclear staining (FIG. 19A). The mean fluorescence intensity (MFI) of P-gp was quantified and graphed in FIG. 19B.
A general note: A western blot detects proteins with antibodies after separation by electrophoresis.

The subject of data set [4] is P-gp. Description: P-gp expression in HEK293T kidney cell line (IFA MFI, western blot). To be noted: Lexiscan® 1, 0.5, 0.1 μM, 15 minutes. The data set is classed as cell-based, human. The protocol:
FIGS. 20A and 20B illustrate that Lexiscan® downregulates P-gp expression in the kidney cell line HEK293T while treatment with antagonist SCH58261 blocks Lexiscan®'s effects. […] HEK293T cells were grown to confluency on coverslips, and treated with varying concentrations of Lexiscan® (1, 0.5, and 0.1 μM) for 15 minutes. Cells were permeabilized and then stained with an antibody to P-gp (C219) and visualized under a fluorescent microscope. FIG. 20B is a graph of the MFI of P-gp in FIG. 20A. DMSO vs. Lexiscan® (“Lex”), *=P<0.05, Lexiscan® (“Lex”)+SCH58261 (“SCH”), ****P<0.0001.
HEK293T transformed kidney cells were treated with varying concentration of Lexiscan® (1, 0.5, 0.1 μM). Cells were lysed with lysis buffer ([…]), containing protease inhibitor cocktail. Samples were loaded on 7% SDS PAGE at 100V for 1 hour and transferred to nitrocellulose paper. The intensity of bands were analyzed by densitometry and plotted as a graph. Statistics: two-tailed student's t test: *=P<0.5, ****=P<0.0001.
Applicants investigated whether A2A AR agonists could modulate P-gp expression in the HEK293T human kidney cell line. HEK293T cells were grown to confluency on coverslips and treated with varying concentrations of Lexiscan, Lexiscan® plus the A2A antagonist (SCH58261), or vehicle control for 15 minutes. Cells were then permeabilized, stained with an antibody to P-gp, and visualized under a fluorescent microscope (FIG. 20A). The mean fluorescence intensity (MFI) of P-gp was quantified and graphed in FIG. 20B.
HEK293T cells were treated with various concentrations of Lexiscan, lysed, loaded onto an SDS-PAGE gel, transferred to a nitrocellulose membrane, and used for western blot analysis.

Data set [5] has as its target T1, P-gp (Mus musculus, UniProt P21447).
T1 construct: down-modulation of P-gp expression and function in brain vascular endothelial cells in WT mice; from tissue; host or cells: brain of WT mice
Description: Epirubicin brain accumulation assay. The data set is classed as in vivo. To be noted: mice; 10 mg/kg epirubicin i.v. with 0.05 mg/kg Lexiscan® or 50 mg/kg PSC833 for 15 minutes. Here is the method: FIG. 12A is a fluorescence microscopy image showing immunofluorescence images of brains from Lexiscan®-treated mice of WT brain at 15 and 30 minutes after Lexiscan® treatment. Frozen brain sections were stained with GLUT1 (red), or P-gp (green) and counterstained with DAPI (blue). FIG. 12B is a fluorescence microscopy image showing an enlarged image of FIG. 12A. FIG. 12C is a graph summarizing the experimental results of a brain epirubicin accumulation assay in the Lexiscan®- and vehicle-treated (control) mice. Briefly, 10 mg/kg of epirubicin was injected intravenously with or without 0.05 mg/kg of Lexiscan®. Mice were perfused with ice-cold PBS and sacrificed at different time points. The accumulation of epirubicin in the brain was measured using fluorometric excitation at 488 nm and emission at 590 nm. *P<0.05 (n=4, 2-tailed Student's t test). FIG. 12D are fluorescence microscopy images showing fluorescent microscopic analysis of epirubicin accumulation in the brains of mice treated with Lexiscan® or PSC833 (a functional P-gp inhibitor) compared with vehicle (control). 10 mg/kg of epirubicin was injected intravenously with or without 0.05 mg/kg of Lexiscan® or 50 mg/kg of PSC833 for 15 minutes. Mice were perfused with ice-cold PBS and sacrificed. Brain was sectioned for microscopic analysis for full-brain image, and focal zoomed image from cortex was laid as an inset. Epirubicin is in red, and nucleus was counterstained with DAPI (blue). FIG. 12E are graphs showing the quantified intensity of epirubicin from different regions of cortex (CTX), cerebellum (CRBL), and hippocampus (HPC) from brains of control, Lexiscan®-, or PSC833-injected animals and depicted as graphs. The scale bars indicate 100 μm in FIG. 12A; 50 μm in FIG. 12B, and 5 mm in FIG. 12D). ***P<0.001 (n=50, 2-tailed Student's t test).
FIG. 14A is a western blot of P-gp and BCRP1 from mouse brain at 2 and 18 hours after NECA treatment. FIG. 14B are graphs showing the enumeration of the expression intensity of P-gp and BCRP1 from the western blots shown in FIG. 14A. The intensity of the bands from NECA treatment group was divided by that of DMSO control. […] For fluorescence microscopy, frozen brain sections were stained with GLUT1 (red) or P-gp (green) and counterstained with DAPI (blue). […] The accumulation of epirubicin in the brain was measured using fluorometry, with excitation at 488 nm and emission at 590 nm. *P<0.05 (n=4, 2-tailed Student's t test).
For Lexiscan® study, 10 mg/kg of epirubicin was injected with or without Lexiscan® (0.05 mg/kg) at different time points, and mice were sacrificed. […] Samples were spun down at 17,000 g for 30 minutes, and the concentration for epirubicin was analyzed with fluorimetry with […].

T1 sequence (P21447 whole entry): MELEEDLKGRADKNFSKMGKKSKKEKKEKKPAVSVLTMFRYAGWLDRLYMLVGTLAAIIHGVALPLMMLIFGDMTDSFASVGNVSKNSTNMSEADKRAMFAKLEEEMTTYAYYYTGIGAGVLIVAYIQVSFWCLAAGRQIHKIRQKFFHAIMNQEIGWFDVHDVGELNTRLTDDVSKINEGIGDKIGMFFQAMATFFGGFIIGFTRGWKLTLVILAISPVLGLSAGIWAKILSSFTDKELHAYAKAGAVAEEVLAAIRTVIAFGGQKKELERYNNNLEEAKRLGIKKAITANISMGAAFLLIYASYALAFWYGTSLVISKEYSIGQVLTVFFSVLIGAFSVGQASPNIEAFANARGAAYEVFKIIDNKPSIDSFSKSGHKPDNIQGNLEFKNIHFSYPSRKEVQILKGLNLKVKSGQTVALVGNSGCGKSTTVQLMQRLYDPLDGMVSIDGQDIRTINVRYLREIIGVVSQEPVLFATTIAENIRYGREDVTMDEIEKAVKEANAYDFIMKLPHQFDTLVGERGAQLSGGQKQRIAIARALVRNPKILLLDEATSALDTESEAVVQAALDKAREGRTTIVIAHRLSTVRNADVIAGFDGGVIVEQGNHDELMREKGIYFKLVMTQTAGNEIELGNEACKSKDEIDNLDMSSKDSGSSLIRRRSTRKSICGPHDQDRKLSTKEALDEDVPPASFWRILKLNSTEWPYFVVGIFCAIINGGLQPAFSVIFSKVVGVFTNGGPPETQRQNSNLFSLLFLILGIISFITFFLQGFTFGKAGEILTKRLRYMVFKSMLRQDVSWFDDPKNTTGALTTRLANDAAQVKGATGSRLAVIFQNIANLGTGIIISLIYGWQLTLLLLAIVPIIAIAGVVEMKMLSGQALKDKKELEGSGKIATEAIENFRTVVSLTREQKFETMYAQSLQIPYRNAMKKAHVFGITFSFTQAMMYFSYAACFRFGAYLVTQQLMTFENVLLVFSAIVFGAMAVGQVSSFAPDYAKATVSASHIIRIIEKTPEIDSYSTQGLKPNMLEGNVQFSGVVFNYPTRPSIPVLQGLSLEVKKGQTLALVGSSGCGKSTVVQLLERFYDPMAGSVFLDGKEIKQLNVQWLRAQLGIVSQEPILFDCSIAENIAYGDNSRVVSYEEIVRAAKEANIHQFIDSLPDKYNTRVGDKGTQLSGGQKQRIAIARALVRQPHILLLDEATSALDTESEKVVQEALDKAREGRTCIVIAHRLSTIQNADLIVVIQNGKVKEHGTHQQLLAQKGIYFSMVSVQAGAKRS

Regarding `Nc1ncnc2c1ncn2[C@@H]1O[C@H](CO)[C@@H](O)[C@H]1O` [adenosine, 9-β-D-Ribofuranosyl-9H-purin-6-amine], the half-life result in data set [1] is given as “about 10 seconds”.
In the case of `CCNC(=O)[C@H]1O[C@@H](n2cnc3c(NCC(c4ccccc4)c4ccccc4)nc(C(=O)NCCNC(=O)NC4CCN(c5ccccn5)CC4)nc32)[C@H](O)[C@@H]1O` [A1193, 6-(2,2-diphenylethylamino)-9-((2R,3R,4S,5S)-5-(ethylcarbamoyl)-3,4-dihydroxytetrahydrofuran-2-yl)-N-(2-(3-(1-(pyridin-2-yl)piperidin-4-yl)ureido)ethyl)-9H-purine-2-carboxamide], the “P-gp expression (antibody staining)” value in the data set with P-gp [2] (15 minutes) is reported as “down-regulate P-gp expression”. Besides, the “Epirubicin accumulation (MFI in cell nuclei)” value with P-gp [2] (15 minutes in the presence of epirubicin) is given as “retained significantly more epirubicin than those treated with control”. The P-gp expression entry in the data set on P-gp [3] was “downregulate P-gp expression”.
As for `Nc1nc2c(cnn2CCc2ccccc2)c2nc(-c3ccco3)nn12` [SCH58261, 2-(2-Furanyl)-7-(2-phenylethyl)-7H-pyrazolo[4,3-e][1,2,4]triazolo[1,5-c]pyrimidin-5-amine], the “P-gp expression (MFI)” value with P-gp [4] is given as “blocked the effects of Lexiscan®”.
In the case of `C/C=C/C[C@@H](C)C(=O)[C@H]1C(=O)N[C@@H](C(C)C)C(=O)N(C)CC(=O)N(C)[C@@H](CC(C)C)C(=O)N[C@@H](C(C)C)C(=O)N(C)[C@@H](CC(C)C)C(=O)N[C@@H](C)C(=O)N[C@H](C)C(=O)N(C)[C@@H](CC(C)C)C(=O)N(C)[C@@H](CC(C)C)C(=O)N(C)[C@@H](C(C)C)C(=O)N1C` [PSC833], the “Epirubicin fluorescent intensity in brain sections (cortex, cerebellum, hippocampus)” value on P-gp [5] is recorded as “Significantly lower epirubicin intensity; also recorded: lower epirubicin intensity than even the control treatment group”.
